From PubChem BioAssay (NCI) come the findings set out here.

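Values below derive from 48-hour exposures of cells grown in 96-well plates, with endpoints linearly interpolated between the two concentrations bracketing the appropriate inhibition level. At the TGI there is no net growth.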

Holding throughout (assay): NCI tumour cell line growth inhibition, 48 h
For test [1], the system named is NCI-H226 lung.
The test system of test [2] is SK-MEL-2 melanoma.
The test system of test [3] is OVCAR-4 ovarian.
Test [4] deals with MCF7 breast.
Test [5] deals with HL-60(TB) leukemia.
Test [6] relates to ACHN renal.
The test system of test [7] is 786-0 renal.
Test [8] relates to M14 melanoma.
The subject of test [9] is HCT-15 colon.
The subject of test [10] is MOLT-4 leukemia.
In test [11] the test system is HT29 colon.
Test [12] deals with U251 CNS.
Test [13] has as its system NCI-H23 lung.
Test [14] has as its system SNB-19 CNS.
Test [15] concerns TK-10 renal.
For test [16], the system named is OVCAR-5 ovarian.
In test [17] the test system is MALME-3M melanoma.
The subject of test [18] is KM12 colon.
Test [19] has as its system SK-MEL-28 melanoma.
In test [20] the test system is MDA-N.

As for `Cc1cc(NS(=O)(=O)c2ccc(N=[N+]([O-])c3ccc(S(=O)(=O)Nc4cc(C)on4)cc3)cc2)no1`, the TGI in [1], in test [2], in [3], in [4], in [5] and in [6] was greater than 100 µM throughout. The TGI in test [7], in test [8], in test [9], in [10], in test [11] and in [12] was greater than 100 µM in each case. Besides, the TGI in test [13], in test [14], in test [15], in test [16] and in test [17] was greater than 100 µM each time.
With `CC(C)(O)c1cc2c(cc1C(C)(C)O)-c1ccccc1-2`, the TGI in test [1], in [18], in test [2], in test [3], in [4] and in test [5] was greater than 100 µM in each case. Also, the TGI in test [6], in [7], in test [8], in test [9], in test [10] and in test [12] was greater than 100 µM throughout. Moreover, the TGI in test [19], in [14], in [15], in test [16] and in [17] was greater than 100 µM each time.
On to `O=C(NCCN1CCCCC1)c1cccc(I)c1`, for which the TGI in test [1], in [18], in [3], in test [4], in [5] and in test [6] was greater than 100 µM throughout. The TGI in test [7], in test [8], in [9], in test [10], in test [11] and in test [12] was greater than 100 µM throughout. For the same compound, the TGI in test [19], in test [13], in test [14], in test [15] and in test [16] was greater than 100 µM in each case.
With `COc1cc([C@@H]2c3cc4c(cc3[C@@H](NCc3cccc(C#N)c3)C3COC(=O)[C@@H]32)OCO4)cc(OC)c1O` (some centres undefined), the TGI in test [1] was 2.4 µM; in test [18], 4.66 µM; in test [2] it was 8.78 µM; in test [3] it was greater than 100 µM; in test [5], 1.51 µM; in [6], 1.58 µM. Further, the TGI turned out to be 2.62 µM in [7]; 6.22 µM in test [8]; 3.17 µM in test [9]; 1.43 µM in test [10]; 5.51 µM in test [11]; 1.93 µM in [12]. Besides, the TGI in test [19] came out at 46.1 µM; in test [13], 1.76 µM; in test [14] it was 7.74 µM; in [15] it was 6.84 µM; in test [16], 14.6 µM; in test [17], 9.58 µM.
Regarding `COC(=O)[C@@](NC(=O)OCc1ccccc1)([C@H](C)O)C(F)(F)F`, the TGI in test [1], in test [18], in test [2], in test [3], in [5] and in [6] was greater than 100 µM in each case. The TGI in [7], in test [8], in [9], in test [10], in test [11] and in test [12] was greater than 100 µM in each case. Also, the TGI in [19], in test [13], in [14], in test [15], in [16] and in test [17] was greater than 100 µM throughout.
With `COc1ccc(-c2nc(-c3cnccn3)n(C3OC(CO)C(O)C3O)n2)cc1` (centres undefined), the TGI in [1], in test [18], in test [2], in test [3], in [4] and in test [5] was greater than 10 µM each time. The TGI in test [6], in test [7], in [8], in test [9], in [10] and in test [11] was greater than 10 µM in each case. The TGI in test [12], in [13], in test [14], in test [15], in test [16] and in test [17] was greater than 10 µM in each case.
With `CCCCCCCCC(O)c1ccc(/C=C\C(O)CCCC(=O)O)s1` (centres undefined), the TGI in [1], in [18], in test [2], in test [3], in test [5] and in test [6] was greater than 100 µM each time. In addition, the TGI in test [7], in test [8], in test [9], in test [10], in test [11] and in test [12] was greater than 100 µM each time. Moreover, the TGI in test [19], in [13], in test [14], in [15], in test [16] and in test [17] was greater than 100 µM each time.
For `C=C1C2=C(CCCC2)C(=O)OC12CCCCC2`, the TGI in test [1], in test [18], in test [2], in [3], in test [5] and in [6] was greater than 100 µM each time. Besides, the TGI in test [7], in [8], in [9], in test [10], in test [11] and in test [12] was greater than 100 µM throughout. For the same compound, the TGI in test [19], in test [13], in [14], in test [15], in test [16] and in test [17] was greater than 100 µM each time.
For `CCOC(=O)C1=C(OC(OCC)C(CC)[Se]c2ccccc2)CCC1` (centres undefined), the TGI in test [1] was 53.5 µM; in test [18], greater than 100 µM; in test [2], greater than 100 µM; in test [3], 28 µM; in test [5], 39.1 µM; in test [6], greater than 100 µM. The TGI came to 30.5 µM in test [7]; 31.6 µM in [8]; 42.9 µM in test [9]; 73.5 µM in test [10]; 58.1 µM in [11]; 25.3 µM in test [12]. In addition, the TGI in test [19] is 92.8 µM; in [13] it was 27.5 µM; in test [14], greater than 100 µM; in [15], greater than 100 µM; in test [16], 69.6 µM; in test [17], 56.7 µM.
As to `COc1ccc(COCC[C@H](C)OC2OC(CO)C(O)C(O)C2O)cc1` (some centres undefined), the TGI in test [1], in test [18], in [2], in [3], in test [4] and in [5] was greater than 100 µM in each case. Besides, the TGI in test [6], in [7], in [8], in test [9], in test [10] and in test [11] was greater than 100 µM each time. For the same compound, the TGI in test [12], in test [19], in [13], in [14], in [15] and in [16] was greater than 100 µM throughout.
Take `O=c1c(Sc2c(SCSc3cnc4ccccc4c3Sc3c[nH]c4ccccc4c3=O)cnc3ccccc23)c[nH]c2ccccc12`: the TGI in [18], in test [3], in test [5], in test [6], in test [7] and in test [8] was greater than 100 µM each time. The TGI in test [9], in test [10], in test [11], in test [20], in test [12] and in test [19] was greater than 100 µM throughout. Besides, the TGI in test [13], in test [14], in test [15] and in test [16] was greater than 100 µM each time.
For the compound `C=C1C(=O)O[C@H]2C1C[C@H](O)[C@@]1(C)OC1CC[C@@]1(C)O[C@H]21` (some centres undefined), the TGI was found to be 55.1 µM in [18]; 55.3 µM in test [2]; 29.6 µM in [3]; 29.5 µM in [4]; 34.2 µM in test [6]; 37.1 µM in test [7]. Further, the TGI was 30.6 µM in test [8]; 40.3 µM in test [9]; 29.8 µM in test [10]; greater than 100 µM in test [11]; greater than 100 µM in [12]; 35.9 µM in test [19]. The TGI in [13] is 39.2 µM; in [15], 36.5 µM; in test [16], 31.5 µM; in [17], 27.4 µM.
As to `CCOC(=O)c1nc2ccc(C(F)(F)F)cc2nc1Nc1ccc(OC)cc1`, the TGI in test [1] is greater than 100 µM; in test [18], greater than 100 µM; in test [2], greater than 100 µM; in test [3], 49.1 µM; in test [4] it was greater than 100 µM; in test [5] it was greater than 100 µM. Moreover, the TGI in test [6], in [7], in test [8], in [9], in test [10] and in test [11] was greater than 100 µM each time. In addition, the TGI in [12], in test [19], in test [13], in [14], in test [15] and in test [16] was greater than 100 µM throughout. Moreover, the TGI in [17] was greater than 100 µM.
In the case of `COc1ccc2[nH]c3c(c2c1)[C@H]1CCC(C(C)(C)C)C[C@H]1[C@H]1C(=O)N(c2ccccc2)C(=O)[C@@H]31` (some centres undefined), the TGI in test [1] was 81.9 µM; in test [18], greater than 100 µM; in test [2], 58 µM; in [3], 14.4 µM; in test [5], greater than 100 µM; in test [6] it was 18.4 µM. Further, the TGI in test [7] is 15.6 µM; in test [8], 30.6 µM; in test [9] it was greater than 100 µM; in test [10], greater than 71.2 µM; in [11], greater than 100 µM; in [12] it was 19.2 µM. Further, the TGI was greater than 100 µM in test [19]; greater than 52.1 µM in test [13]; greater than 51.7 µM in test [14]; greater than 74.1 µM in test [15]; greater than 100 µM in [16]; 40.4 µM in [17].
As for `O=C(Cn1c2ccc(Br)cc2c2nc3ccccc3nc21)Nc1ccccc1`, the TGI in [1] was 82.7 µM; in [18], greater than 100 µM; in test [2], greater than 100 µM; in [3], 99.4 µM; in [6], greater than 100 µM; in [7], 28.7 µM. The TGI in test [8] was greater than 100 µM; in test [9], 70.5 µM; in test [10], greater than 100 µM; in [11] it was greater than 100 µM; in test [20], greater than 100 µM; in test [12], 73.5 µM. For the same compound, the TGI is greater than 100 µM in test [19]; 93.6 µM in test [13]; greater than 100 µM in test [14]; greater than 100 µM in [15]; greater than 100 µM in test [16]; 79 µM in test [17].
